The source made the active and inactive calls. No cut-off for these calls is given here.
Legend:
[1] = molecular target: Tyrosine-protein kinase BTK (Homo sapiens, UniProt Q06187); experiment: Inhibition of full length recombinant human BTK using KVEKIGEGTYGVVYK as substrate incubated for 40 mins in presence of [gamma-33P]-ATP by scintillation counting based radiometry assay
[2] = AUC(0 to infinity) in Sprague-Dawley rat at 3 mg/kg, po measured upto 24 hrs by LC-MS analysis; assay type: ADME, organism-based; set-up: route oral, dose 3 mg/kg, time <=24; settings: in vivo
[3] = AUC(0 to t) in ICR mouse at 1 mg/kg, iv measured upto 24 hrs by LC-MS analysis; assay type: ADME, organism-based; set-up: route intravenous, dose 1 mg/kg, time <=24; settings: in vivo
[4] = molecular target: Tyrosine-protein kinase Mer (Homo sapiens, UniProt Q12866); experiment: Inhibition of recombinant human MER (557 to 882 residues) using GGMEDIYFEFMGG as substrate incubated for 40 mins in presence of [gamma-33ATP by scintillation counting based radiometry assay
[5] = molecular target: Vascular endothelial growth factor receptor 1 (Homo sapiens, UniProt P17948); experiment: Inhibition of recombinant human FLT1 (783 to end residues) using KKKSPGEYVNIEFG as substrate incubated for 40 mins in presence of [gamma-33ATP] by scintillation counting based radiometry assay
Chain of Vascular endothelial growth factor receptor 1 (P17948 whole entry, the tested form may be a part): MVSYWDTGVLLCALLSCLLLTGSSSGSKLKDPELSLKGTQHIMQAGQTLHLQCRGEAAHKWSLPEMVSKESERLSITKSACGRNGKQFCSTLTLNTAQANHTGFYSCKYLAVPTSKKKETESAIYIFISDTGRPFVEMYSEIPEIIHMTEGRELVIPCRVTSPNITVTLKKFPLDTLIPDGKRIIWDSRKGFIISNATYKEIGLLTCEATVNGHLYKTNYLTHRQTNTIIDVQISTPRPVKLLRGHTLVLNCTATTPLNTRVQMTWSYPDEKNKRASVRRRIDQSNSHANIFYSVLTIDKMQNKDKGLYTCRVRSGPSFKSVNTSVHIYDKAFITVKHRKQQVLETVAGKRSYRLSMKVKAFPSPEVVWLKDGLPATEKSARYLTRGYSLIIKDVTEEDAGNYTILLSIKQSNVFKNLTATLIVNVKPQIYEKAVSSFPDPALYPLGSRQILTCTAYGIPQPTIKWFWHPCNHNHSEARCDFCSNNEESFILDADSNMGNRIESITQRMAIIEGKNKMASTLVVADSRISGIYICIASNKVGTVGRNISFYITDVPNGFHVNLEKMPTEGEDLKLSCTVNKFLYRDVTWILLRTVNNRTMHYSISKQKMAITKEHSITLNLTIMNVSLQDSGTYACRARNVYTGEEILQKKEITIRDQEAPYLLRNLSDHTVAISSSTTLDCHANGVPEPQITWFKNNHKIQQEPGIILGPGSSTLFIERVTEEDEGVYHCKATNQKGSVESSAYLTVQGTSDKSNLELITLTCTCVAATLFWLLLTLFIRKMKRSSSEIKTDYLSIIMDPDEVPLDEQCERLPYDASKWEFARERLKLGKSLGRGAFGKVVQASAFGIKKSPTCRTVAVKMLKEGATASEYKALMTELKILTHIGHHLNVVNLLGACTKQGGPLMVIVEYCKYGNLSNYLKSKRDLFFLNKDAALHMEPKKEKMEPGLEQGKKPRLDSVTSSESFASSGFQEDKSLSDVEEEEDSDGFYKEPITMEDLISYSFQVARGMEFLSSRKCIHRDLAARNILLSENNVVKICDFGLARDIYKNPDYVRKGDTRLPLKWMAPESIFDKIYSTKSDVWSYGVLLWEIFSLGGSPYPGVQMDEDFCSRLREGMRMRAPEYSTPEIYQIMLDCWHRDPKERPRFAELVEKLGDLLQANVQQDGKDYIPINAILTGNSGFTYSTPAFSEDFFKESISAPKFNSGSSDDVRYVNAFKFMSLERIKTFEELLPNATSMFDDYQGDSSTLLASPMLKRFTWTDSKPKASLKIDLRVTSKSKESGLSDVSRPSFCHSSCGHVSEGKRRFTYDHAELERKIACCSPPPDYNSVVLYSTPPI

[6] = molecular target: Receptor tyrosine-protein kinase erbB-4 (Homo sapiens, UniProt Q15303); experiment: Inhibition of recombinant human ERBB4 (706 to 991 residues) using poly(Glu, Tyr) 4:1 as substrate incubated for 40 mins in presence of [gamma-33ATP] by scintillation counting based radiometry assay
[7] = molecular target: Proto-oncogene tyrosine-protein kinase Src (Homo sapiens, UniProt P12931); experiment: Inhibition of recombinant human C-Src using KVEKIGEGTYGVVYK as substrate incubated 40 mins in presence of [gamma-33ATP] by scintillation counting based radiometry assay
[8] = molecular target: Ephrin type-A receptor 2 (Homo sapiens, UniProt P29317); experiment: Inhibition of recombinant human EphA2 (596 to 900 residues) using poly(Glu, Tyr) 4:1 as substrate incubated for 40 mins in presence of [gamma-33ATP] by scintillation counting based radiometry assay
[9] = molecular target: Mitogen-activated protein kinase 1 (Homo sapiens, UniProt P28482); experiment: Inhibition of human full length recombinant ERK2 using myelin basic protein as substrate incubated for 40 mins in presence of [gamma33P-ATP] by radiometric scintillation counting analysis
Chain of Mitogen-activated protein kinase 1 (P28482 whole entry): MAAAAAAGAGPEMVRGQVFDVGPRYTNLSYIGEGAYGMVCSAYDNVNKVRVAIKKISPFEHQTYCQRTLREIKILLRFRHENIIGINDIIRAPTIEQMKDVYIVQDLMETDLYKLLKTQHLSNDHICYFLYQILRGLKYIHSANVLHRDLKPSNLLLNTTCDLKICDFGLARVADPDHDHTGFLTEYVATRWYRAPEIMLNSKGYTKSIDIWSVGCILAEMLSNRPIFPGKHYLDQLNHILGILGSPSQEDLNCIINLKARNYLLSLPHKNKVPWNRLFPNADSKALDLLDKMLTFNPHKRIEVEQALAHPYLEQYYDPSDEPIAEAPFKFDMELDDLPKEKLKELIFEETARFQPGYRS

[10] = molecular target: Dual specificity mitogen-activated protein kinase kinase 1 (Homo sapiens, UniProt Q02750); experiment: Inhibition of recombinant human MEK1 using inactive MAPK2 as substrate incubated for 40 mins in presence of [gamma-33ATP] by scintillation counting based radiometry assay
Chain of Dual specificity mitogen-activated protein kinase kinase 1 (Q02750 whole entry): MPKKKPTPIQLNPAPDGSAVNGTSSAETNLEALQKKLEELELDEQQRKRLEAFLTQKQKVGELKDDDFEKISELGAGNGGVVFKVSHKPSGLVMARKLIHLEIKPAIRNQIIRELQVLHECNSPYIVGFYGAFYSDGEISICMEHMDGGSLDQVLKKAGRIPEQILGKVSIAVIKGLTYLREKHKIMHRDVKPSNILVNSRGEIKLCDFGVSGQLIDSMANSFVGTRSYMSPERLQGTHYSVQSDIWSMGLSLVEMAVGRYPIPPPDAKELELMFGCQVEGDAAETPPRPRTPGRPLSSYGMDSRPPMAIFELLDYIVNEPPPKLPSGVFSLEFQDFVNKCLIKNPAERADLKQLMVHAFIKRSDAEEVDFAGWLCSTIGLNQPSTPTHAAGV

[11] = molecular target: Ribosomal protein S6 kinase alpha-1 (Homo sapiens, UniProt Q15418); experiment: Inhibition of recombinant full length human Rsk1 using KKKNRTLSVA as substrate incubated for 40 mins in presence of [gamma33P]ATP by scintillation counting based radiometry assay
Chain of Ribosomal protein S6 kinase alpha-1 (Q15418 whole entry): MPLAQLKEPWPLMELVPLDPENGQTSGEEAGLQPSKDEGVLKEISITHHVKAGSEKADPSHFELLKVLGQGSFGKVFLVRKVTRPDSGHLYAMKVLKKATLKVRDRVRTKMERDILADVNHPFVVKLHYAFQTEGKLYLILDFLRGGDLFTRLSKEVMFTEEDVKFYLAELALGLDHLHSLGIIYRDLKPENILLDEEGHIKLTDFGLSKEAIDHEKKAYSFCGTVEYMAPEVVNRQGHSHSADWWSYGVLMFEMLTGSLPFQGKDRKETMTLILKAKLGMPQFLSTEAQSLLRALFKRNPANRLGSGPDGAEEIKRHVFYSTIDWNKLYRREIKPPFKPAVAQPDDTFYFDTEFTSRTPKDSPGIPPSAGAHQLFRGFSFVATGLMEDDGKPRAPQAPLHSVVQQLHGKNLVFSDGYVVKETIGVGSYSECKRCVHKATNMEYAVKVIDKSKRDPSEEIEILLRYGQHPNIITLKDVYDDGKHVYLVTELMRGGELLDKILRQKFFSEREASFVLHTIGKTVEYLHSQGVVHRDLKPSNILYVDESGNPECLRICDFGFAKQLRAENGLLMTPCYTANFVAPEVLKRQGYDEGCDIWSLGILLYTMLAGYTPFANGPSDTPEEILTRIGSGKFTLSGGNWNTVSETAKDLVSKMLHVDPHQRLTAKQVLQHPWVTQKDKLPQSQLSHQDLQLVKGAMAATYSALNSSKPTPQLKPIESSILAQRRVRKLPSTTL

[12] = molecular target: Mitogen-activated protein kinase kinase kinase 20 (Homo sapiens, UniProt Q9NYL2); experiment: Inhibition of recombinant full-length human ZAK using MBP as substrate incubated for 40 mins in presence of [gamma33P]ATP by scintillation counting based radiometry assay
Chain of Mitogen-activated protein kinase kinase kinase 20 (Q9NYL2 whole entry): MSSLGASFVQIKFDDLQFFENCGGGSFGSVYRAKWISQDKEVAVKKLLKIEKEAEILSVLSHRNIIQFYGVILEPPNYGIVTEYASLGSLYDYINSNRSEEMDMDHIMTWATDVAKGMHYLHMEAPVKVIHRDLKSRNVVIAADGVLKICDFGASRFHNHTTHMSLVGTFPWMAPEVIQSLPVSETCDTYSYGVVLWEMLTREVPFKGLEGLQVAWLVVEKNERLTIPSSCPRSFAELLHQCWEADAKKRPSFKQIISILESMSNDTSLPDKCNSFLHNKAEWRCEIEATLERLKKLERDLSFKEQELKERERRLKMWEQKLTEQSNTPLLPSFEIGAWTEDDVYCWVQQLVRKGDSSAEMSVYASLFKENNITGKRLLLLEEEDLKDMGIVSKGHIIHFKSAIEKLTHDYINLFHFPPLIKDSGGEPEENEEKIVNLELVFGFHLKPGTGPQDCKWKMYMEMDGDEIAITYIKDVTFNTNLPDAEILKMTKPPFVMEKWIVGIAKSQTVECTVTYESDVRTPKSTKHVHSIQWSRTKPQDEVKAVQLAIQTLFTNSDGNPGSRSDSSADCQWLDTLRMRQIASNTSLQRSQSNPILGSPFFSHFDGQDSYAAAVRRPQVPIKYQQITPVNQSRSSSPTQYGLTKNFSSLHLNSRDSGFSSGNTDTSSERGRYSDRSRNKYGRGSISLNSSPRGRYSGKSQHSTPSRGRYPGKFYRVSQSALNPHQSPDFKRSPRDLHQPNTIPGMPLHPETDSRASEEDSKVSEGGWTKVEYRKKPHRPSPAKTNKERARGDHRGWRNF

[13] = molecular target: Calcium/calmodulin-dependent protein kinase type 1 (Homo sapiens, UniProt Q14012); experiment: Inhibition of recombinant human CaMK1 (2 to end residues) using […] as substrate incubated for 40 mins in presence of [gamma-33ATP] by scintillation counting based radiometry assay
[14] = molecular target: Cyclin-dependent kinase 1/cyclin B1 (Homo sapiens, UniProt P06493); experiment: Inhibition of recombinant full length human CDK1/CyclinB using Histone H1 as substrate incubated for 40 mins in presence of [gamma-33ATP] by scintillation counting based radiometry assay; assay type: protein-complex assay
Chain of Cyclin-dependent kinase 1/cyclin B1 (P06493 whole entry): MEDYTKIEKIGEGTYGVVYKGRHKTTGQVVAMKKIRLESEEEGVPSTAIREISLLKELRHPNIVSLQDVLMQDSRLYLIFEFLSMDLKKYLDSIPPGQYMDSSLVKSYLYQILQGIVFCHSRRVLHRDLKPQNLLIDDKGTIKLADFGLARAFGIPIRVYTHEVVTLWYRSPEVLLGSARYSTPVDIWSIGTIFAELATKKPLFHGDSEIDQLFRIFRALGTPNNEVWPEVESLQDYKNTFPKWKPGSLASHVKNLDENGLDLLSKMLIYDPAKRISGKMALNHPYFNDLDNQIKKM
Chain of Cyclin-dependent kinase 1/cyclin B1 (P14635 whole entry, further chain): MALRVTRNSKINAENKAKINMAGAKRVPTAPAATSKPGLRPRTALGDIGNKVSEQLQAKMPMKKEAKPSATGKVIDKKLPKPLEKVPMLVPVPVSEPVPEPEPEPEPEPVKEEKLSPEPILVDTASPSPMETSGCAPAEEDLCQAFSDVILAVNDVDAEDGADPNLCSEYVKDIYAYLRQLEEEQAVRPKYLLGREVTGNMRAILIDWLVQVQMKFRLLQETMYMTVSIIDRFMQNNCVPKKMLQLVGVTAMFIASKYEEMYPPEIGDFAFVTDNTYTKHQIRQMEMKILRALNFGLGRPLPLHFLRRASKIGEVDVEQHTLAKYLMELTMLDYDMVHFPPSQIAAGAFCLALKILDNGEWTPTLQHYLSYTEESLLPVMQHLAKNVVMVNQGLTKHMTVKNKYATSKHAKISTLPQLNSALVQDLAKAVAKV

[15] = molecular target: T1, Tyrosine-protein kinase receptor UFO (Mus musculus) (UniProt Q00993); experiment: Inhibition of AXL in mouse BaF3/TEL-AXL cells assessed as reduction in Gas6-induced phosphorylation of AXL at 0.5 to 50 nM preincubated for 2 hrs followed by Gas6 stimulation for 15 mins by Western blotting analysis; assay type: cell-based; settings: dose 0.5-50 nM
T1 sequence (whole entry): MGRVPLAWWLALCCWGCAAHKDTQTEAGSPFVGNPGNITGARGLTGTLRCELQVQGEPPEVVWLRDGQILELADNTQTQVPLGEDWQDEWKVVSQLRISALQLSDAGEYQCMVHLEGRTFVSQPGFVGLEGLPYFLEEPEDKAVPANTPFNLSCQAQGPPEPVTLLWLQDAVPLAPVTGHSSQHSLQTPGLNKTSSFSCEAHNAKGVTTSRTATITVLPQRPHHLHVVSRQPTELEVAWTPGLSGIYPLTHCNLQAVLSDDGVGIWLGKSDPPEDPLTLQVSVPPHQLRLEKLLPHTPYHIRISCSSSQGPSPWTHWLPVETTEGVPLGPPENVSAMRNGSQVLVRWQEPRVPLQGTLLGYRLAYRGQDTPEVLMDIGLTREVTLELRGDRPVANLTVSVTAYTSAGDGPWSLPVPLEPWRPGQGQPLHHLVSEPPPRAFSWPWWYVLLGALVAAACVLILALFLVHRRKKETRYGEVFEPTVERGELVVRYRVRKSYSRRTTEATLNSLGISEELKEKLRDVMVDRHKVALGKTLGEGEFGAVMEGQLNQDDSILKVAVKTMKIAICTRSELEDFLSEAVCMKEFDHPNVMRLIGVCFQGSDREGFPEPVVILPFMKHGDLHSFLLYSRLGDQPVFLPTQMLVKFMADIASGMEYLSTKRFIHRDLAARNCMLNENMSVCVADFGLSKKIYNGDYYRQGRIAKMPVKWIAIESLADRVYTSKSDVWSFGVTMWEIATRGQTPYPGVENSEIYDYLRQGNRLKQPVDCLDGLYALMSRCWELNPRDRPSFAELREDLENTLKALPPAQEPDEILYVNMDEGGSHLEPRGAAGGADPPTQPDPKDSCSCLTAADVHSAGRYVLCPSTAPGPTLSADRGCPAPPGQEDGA

[16] = molecular target: Hepatocyte growth factor receptor (Homo sapiens, UniProt P08581); experiment: Inhibition of MET signaling in human EBC1 cells assessed as reduction in phosphorylation of ERK after 2 hrs by Western blotting analysis; assay type: cell-based; settings: EBC-1, dose 10-100 nM
[17] = system: HCC78; experiment: Antiproliferative activity against human HCC78 cells incubated for 72 hrs by SRB or CCK8 assay; assay type: functional, cell-based; settings: HCC78, 72 h
[18] = system: KMS-11; experiment: Antiproliferative activity against human KMS-11 cells incubated for 72 hrs by SRB or CCK8 assay; assay type: functional, cell-based; settings: KMS-11, 72 h
[19] = system: RT-112; experiment: Antiproliferative activity against human RT-112 cells incubated for 72 hrs by SRB or CCK8 assay; assay type: functional, cell-based; settings: RT-112, 72 h
[20] = system: HL-60; experiment: Antiproliferative activity against human HL-60 cells incubated for 72 hrs by SRB or CCK8 assay; assay type: functional, cell-based; settings: HL-60, 72 h
[21] = system: U-87 MG; experiment: Antitumor activity against human U-87MG cells xenografted in BALB/c nude mouse assessed as tumor growth inhibition at 25 mg/kg, po administered once daily for 14 days by caliper method; assay type: functional, U-87MG ATCC; settings: 336 h, time 14 day, read-out: TGI

Chain of Tyrosine-protein kinase BTK (Q06187 whole entry): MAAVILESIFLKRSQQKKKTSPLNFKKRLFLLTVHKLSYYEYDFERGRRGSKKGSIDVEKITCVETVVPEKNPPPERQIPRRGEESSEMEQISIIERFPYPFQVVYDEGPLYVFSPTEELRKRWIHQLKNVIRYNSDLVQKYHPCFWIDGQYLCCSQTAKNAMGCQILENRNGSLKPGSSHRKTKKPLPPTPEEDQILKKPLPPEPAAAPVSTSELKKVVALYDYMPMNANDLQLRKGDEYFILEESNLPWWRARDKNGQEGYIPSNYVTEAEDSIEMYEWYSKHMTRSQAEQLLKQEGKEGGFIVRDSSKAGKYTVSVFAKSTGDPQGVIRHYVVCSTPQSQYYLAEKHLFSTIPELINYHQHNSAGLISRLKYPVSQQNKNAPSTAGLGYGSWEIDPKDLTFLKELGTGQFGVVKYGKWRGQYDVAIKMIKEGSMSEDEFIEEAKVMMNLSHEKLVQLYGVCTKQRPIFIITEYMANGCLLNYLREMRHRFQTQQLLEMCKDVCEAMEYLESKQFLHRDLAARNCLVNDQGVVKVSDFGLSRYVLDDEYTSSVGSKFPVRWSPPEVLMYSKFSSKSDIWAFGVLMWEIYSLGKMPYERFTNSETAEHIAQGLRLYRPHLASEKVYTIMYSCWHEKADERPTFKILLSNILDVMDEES

SMILES: CC(C)n1cc(C(=O)Nc2ccc(Oc3ccnc(NC(=O)C4CC4)c3)c(F)c2)c(=O)n(-c2ccc(F)cc2)c1=O
- IC50 [1]: > 1000 nM
- AUC(0-inf) [2]: 43900 ng·h/mL
- AUC(0-t) at 24 h [3]: 7010 ng·h/mL
- IC50 [4]: < 10 nM
- IC50 [5]: > 1000 nM
- IC50 [6]: > 1000 nM
- IC50 [7]: > 1000 nM
- IC50 [8]: > 100 nM
- IC50 [9]: > 1000 nM
- IC50 [10]: > 1000 nM
- IC50 [11]: > 1000 nM
- IC50 [12]: > 100 nM
- IC50 [13]: > 1000 nM
- IC50 [14]: > 1000 nM
- inhibition [15]: Active
- inhibition [16]: Dose-Dependent Effect
- IC50 [17]: > 10 µM
- IC50 [18]: > 10 µM
- IC50 [19]: > 10 µM
- IC50 [20]: > 10 µM
- inhibition in vivo at 25 mg/kg [21]: 89.8%
